Laboratory results taken from ChEMBL document CHEMBL4138123, “Design, synthesis and biological evaluation of novel pyrazolochalcones as potential modulators of PI3K/Akt/mTOR pathway and inducers of apoptosis in breast cancer cells” (Eur J Med Chem, 2017).

Assays:
Format in all cases: functional
K562 = experiment: Cytotoxicity against human K562 cells assessed as cell growth at 100 uM after 48 hrs by sulforhodamine B assay relative to control; settings: K562, 48 h, read-out: Activity
UO-31 [1] = experiment: Cytotoxicity against human UO31 cells assessed as cell growth at 100 uM after 48 hrs by sulforhodamine B assay relative to control; settings: UO-31, 48 h, read-out: Activity
COLO 205 [2] = experiment: Cytotoxicity against human COLO205 cells assessed as cell growth at 0.01 uM after 48 hrs by sulforhodamine B assay relative to control; settings: COLO 205, 48 h, read-out: Activity
OVCAR-3 = experiment: Cytotoxicity against human OVCAR3 cells assessed as cell growth at 1 uM after 48 hrs by sulforhodamine B assay relative to control; settings: OVCAR-3, 48 h, read-out: Activity
HL-60(TB) = experiment: Cytotoxicity against human HL-60(TB) cells assessed as cell growth at 10 uM after 48 hrs by sulforhodamine B assay relative to control; settings: HL-60, 48 h, read-out: Activity
IGROV-1 [3] = experiment: Cytotoxicity against human IGROV1 cells assessed as cell growth at 0.1 uM after 48 hrs by sulforhodamine B assay relative to control; settings: IGROV-1, 48 h, read-out: Activity
SNB-19 = experiment: Cytotoxicity against human SNB19 cells assessed as cell growth at 1 uM after 48 hrs by sulforhodamine B assay relative to control; settings: SNB-19, 48 h, read-out: Activity
COLO 205 [4] = experiment: Cytotoxicity against human COLO205 cells assessed as cell growth at 100 uM after 48 hrs by sulforhodamine B assay relative to control; settings: COLO 205, 48 h, read-out: Activity
M14 [5] = experiment: Cytotoxicity against human M14 cells assessed as cell growth at 10 uM after 48 hrs by sulforhodamine B assay relative to control; settings: M14, 48 h, read-out: Activity
HCT-15 = experiment: Cytotoxicity against human HCT15 cells assessed as cell growth at 0.1 uM after 48 hrs by sulforhodamine B assay relative to control; settings: HCT-15, 48 h, read-out: Activity
MDA-MB-468 [6] = experiment: Cytotoxicity against human MDA-MB-468 cells assessed as cell growth at 0.1 uM after 48 hrs by sulforhodamine B assay relative to control; settings: MDA-MB-468, 48 h, read-out: Activity
A498 [7] = experiment: Cytotoxicity against human A498 cells assessed as cell growth at 100 uM after 48 hrs by sulforhodamine B assay relative to control; settings: A498, 48 h, read-out: Activity
M14 [8] = experiment: Cytotoxicity against human M14 cells assessed as cell growth at 0.1 uM after 48 hrs by sulforhodamine B assay relative to control; settings: M14, 48 h, read-out: Activity
NCI-H322M = experiment: Cytotoxicity against human NCI-H322M cells assessed as cell growth at 0.1 uM after 48 hrs by sulforhodamine B assay relative to control; settings: read-out: Activity
RXF 393 = experiment: Cytotoxicity against human RXF393 cells assessed as cell growth at 10 uM after 48 hrs by sulforhodamine B assay relative to control; settings: RXF 393, 48 h, read-out: Activity
MDA-MB-231 = experiment: Cytotoxicity against human MDA-MB-231 cells assessed as cell growth at 100 uM after 48 hrs by sulforhodamine B assay relative to control; settings: MDA-MB-231, 48 h, read-out: Activity
Malme-3M [9] = experiment: Cytotoxicity against human MALME-3M cells assessed as cell growth at 100 uM after 48 hrs by sulforhodamine B assay relative to control; settings: read-out: Activity
MDA-MB-468 [10] = experiment: Cytotoxicity against human MDA-MB-468 cells assessed as cell growth at 1 uM after 48 hrs by sulforhodamine B assay relative to control; settings: MDA-MB-468, 48 h, read-out: Activity
Malme-3M [11] = experiment: Cytotoxicity against human MALME-3M cells assessed as cell growth at 1 uM after 48 hrs by sulforhodamine B assay relative to control; settings: read-out: Activity
OVCAR-5 = experiment: Cytotoxicity against human OVCAR5 cells assessed as cell growth at 100 uM after 48 hrs by sulforhodamine B assay relative to control; settings: OVCAR-5, 48 h, read-out: Activity
IGROV-1 [12] = experiment: Cytotoxicity against human IGROV1 cells assessed as cell growth at 100 uM after 48 hrs by sulforhodamine B assay relative to control; settings: IGROV-1, 48 h, read-out: Activity
UO-31 [13] = experiment: Cytotoxicity against human UO31 cells assessed as cell growth at 1 uM after 48 hrs by sulforhodamine B assay relative to control; settings: UO-31, 48 h, read-out: Activity
SF-268 = experiment: Cytotoxicity against human SF268 cells assessed as cell growth at 0.01 uM after 48 hrs by sulforhodamine B assay relative to control; settings: SF-268, 48 h, read-out: Activity
ACHN = experiment: Cytotoxicity against human ACHN cells assessed as growth inhibition after 48 hrs by sulforhodamine B assay
HCC 2998 = experiment: Cytotoxicity against human HCC2998 cells assessed as growth inhibition after 48 hrs by sulforhodamine B assay; settings: HCC 2998, 48 h
Malme-3M [14] = experiment: Cytotoxicity against human MALME-3M cells assessed as cell growth at 10 uM after 48 hrs by sulforhodamine B assay relative to control; settings: read-out: Activity
HOP-62 = experiment: Cytotoxicity against human HOP62 cells assessed as cell growth at 0.01 uM after 48 hrs by sulforhodamine B assay relative to control; settings: HOP-62, 48 h, read-out: Activity
MCF7 = experiment: Cytotoxicity against human MCF7 cells assessed as growth inhibition after 48 hrs by sulforhodamine B assay; settings: MCF7, 48 h
M14 [15] = experiment: Cytotoxicity against human M14 cells assessed as growth inhibition after 48 hrs by sulforhodamine B assay; settings: M14, 48 h
SR = experiment: Cytotoxicity against human SR cells assessed as cell growth at 0.1 uM after 48 hrs by sulforhodamine B assay relative to control; settings: read-out: Activity
A498 [16] = experiment: Cytotoxicity against human A498 cells assessed as cell growth at 0.1 uM after 48 hrs by sulforhodamine B assay relative to control; settings: A498, 48 h, read-out: Activity
NCI-H226 = experiment: Cytotoxicity against human NCI-H226 cells assessed as cell growth at 100 uM after 48 hrs by sulforhodamine B assay relative to control; settings: NCI-H226, 48 h, read-out: Activity
UO-31 [17] = experiment: Cytotoxicity against human UO31 cells assessed as cell growth at 0.01 uM after 48 hrs by sulforhodamine B assay relative to control; settings: UO-31, 48 h, read-out: Activity
786-0 = experiment: Cytotoxicity against human 786-0 cells assessed as cell growth at 0.1 uM after 48 hrs by sulforhodamine B assay relative to control; settings: 786-0, 48 h, read-out: Activity
NCI-H23 = experiment: Cytotoxicity against human NCI-H23 cells assessed as cell growth at 1 uM after 48 hrs by sulforhodamine B assay relative to control; settings: NCI-H23, 48 h, read-out: Activity
HT-29 = experiment: Cytotoxicity against human HT-29 cells assessed as cell growth at 1 uM after 48 hrs by sulforhodamine B assay relative to control; settings: HT-29, 48 h, read-out: Activity
COLO 205 [18] = experiment: Cytotoxicity against human COLO205 cells assessed as cell growth at 1 uM after 48 hrs by sulforhodamine B assay relative to control; settings: COLO 205, 48 h, read-out: Activity

## COc1ccc(C(=O)/C=C/c2cc(-c3ccc4c(c3)OCO4)n[nH]2)cc1OC
K562
  growth at 100 µM: -12%
UO-31 [1]
  growth at 100 µM: -93%
COLO 205 [2]
  growth at 0.01 µM: 102%
OVCAR-3
  growth at 1 µM: 92%
HL-60(TB)
  growth at 10 µM: 3%
IGROV-1 [3]
  growth at 0.1 µM: 93%
SNB-19
  growth at 1 µM: 79%
COLO 205 [4]
  growth at 100 µM: -83%
M14 [5]
  growth at 10 µM: 38%
HCT-15
  growth at 0.1 µM: 95%
MDA-MB-468 [6]
  growth at 0.1 µM: 90%
A498 [7]
  growth at 100 µM: -93%
M14 [8]
  growth at 0.1 µM: 98%
NCI-H322M
  growth at 0.1 µM: 88%
RXF 393
  growth at 10 µM: -39%
MDA-MB-231
  growth at 100 µM: -86%
Malme-3M [9]
  growth at 100 µM: -74%
MDA-MB-468 [10]
  growth at 1 µM: 85%
Malme-3M [11]
  growth at 1 µM: 106%
OVCAR-5
  growth at 100 µM: -30%
IGROV-1 [12]
  growth at 100 µM: -59%
UO-31 [13]
  growth at 1 µM: 79%
SF-268
  growth at 0.01 µM: 93%
ACHN
  LC50: > 100 µM
  TGI: 56.5 µM
HCC 2998
  LC50: 48.1 µM
  TGI: 17.3 µM
Malme-3M [14]
  growth at 10 µM: 41%
HOP-62
  growth at 0.01 µM: 95%
MCF7
  GI50: 3.27 µM
  LC50: > 100 µM
  TGI: 16.8 µM
M14 [15]
  LC50 (concentration killing 50% of cells): 58.4 µM
  TGI: 21.4 µM
SR
  growth at 0.1 µM: 88%
A498 [16]
  growth at 0.1 µM: 80%
NCI-H226
  growth at 100 µM: -20%
UO-31 [17]
  growth at 0.01 µM: 86%
786-0
  growth at 0.1 µM: 95%
NCI-H23
  growth at 1 µM: 85%
HT-29
  growth at 1 µM: 93%
COLO 205 [18]
  growth at 1 µM: 101%
